Reference: article PMC5698418 (Nature Communications, 2017)
Structures can show the parent of a compound that is named as a salt. Where two headings read alike, the source gives them in different places.

Test system: BDNF-induced nuclear Arc expression in primary cortical neurons
Experiment: Chemogenomic screen: high-content image-based assay of BDNF-induced nuclear Arc expression (96-well)
Format: cell-based, mouse
Outline: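 Nuclear Arc immunofluorescence is quantified automatically within an acetyl-H3K9-defined nuclear mask from ×40 images. Cultures are DIV13 mouse forebrain cortical neurons seeded at 30,000 per well and exposed to BDNF plus compound at a final 16.7 µM, with triplicate biological replicates.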

[1] = chemogenomic (SMART) screen, BDNF-induced nuclear Arc expression, primary cortical neurons, BDNF control 19.5
[2] = nuclear Arc-positive cells relative to DMSO + BDNF control, negative values = decrease
[3] = BDNF-induced nuclear Arc expression, primary cortical neurons, chemogenomic screen

Compound	Percentage of cell with nuclear Arc immunostaining above 2σ threshold [1]	Fold-change — Normalized to DMSO control (BDNF) [2]	also measured
CN1CCC(=C2c3ccccc3CC(=O)c3sccc32)CC1 [Ketotifen]	12.3%	–	–
CC[C@H](CO)Nc1nc(NCc2ccccc2)c2ncn(C(C)C)c2n1 [Roscovitine]	–	–	Fold-change — Normalized to DMSO control (BDNF): 1.3 fold; Percentage of cell with nuclear Arc immunostaining above 2σ threshold: 24.9%
CCN(CC)CCOC(=O)c1ccc(N)cc1 [Procaine hydrochloride]	37.1%	1.9 fold	–
C[S+](CC[C@H](N)C(=O)[O-])C[C@H]1O[C@@H](n2cnc3c(N)ncnc32)[C@H](O)[C@@H]1O (stereo partly shown) [S-Adenosylmethionine]	12.8%	–	–
CCN(CC)C(C)CN1c2ccccc2Sc2ccccc21 (stereo not shown) [Ethopropazine]	27.2%	1.4 fold	–
O=C1[C@@H]2[C@H]3CC[C@H](C3)[C@@H]2C(=O)N1CCCCN1CCN(c2ncccn2)CC1 [Tandospirone]	25.7%	1.3 fold	–
CN1CCN(CCCN2c3ccccc3Sc3ccc(Cl)cc32)CC1 [Prochlorperazine]	–	–	Percentage of cell with nuclear Arc immunostaining above 2σ threshold [3]: 0.375%
CCN1CCC[C@H]1CNC(=O)c1cc(S(N)(=O)=O)ccc1OC [Levosulpiride]	28.2%	1.4 fold	–
O=C(/C=C/C=C/c1ccc2c(c1)OCO2)N1CCCCC1 [Piperine]	18.5%	–	–
C[N+]12CCC(CC1)C(OC(=O)C(O)(c1ccccc1)c1ccccc1)C2 (stereo not shown) [Clidinium bromide]	24.4%	1.2 fold	–
CC#C[C@]1(O)CC[C@H]2[C@@H]3CCC4=CC(=O)CCC4=C3[C@@H](c3ccc(N(C)C)cc3)C[C@@]21C [Mifepristone]	43.7%	2.2 fold	–
O=C1[C@@H]2[C@H]3CC[C@H](C3)[C@@H]2C(=O)N1C[C@@H]1CCCC[C@H]1CN1CCN(c2nsc3ccccc23)CC1 [Lurasidone]	39.0%	2.0 fold	–
O=C(CCCN1CCC(O)(c2ccc(Br)cc2)CC1)c1ccc(F)cc1 [Bromperidol]	28.9%	1.5 fold	–
C=C[C@@]1(C)CC(=O)[C@]2(O)[C@@]3(C)[C@@H](O)CCC(C)(C)[C@@H]3[C@H](OC(=O)CCN(C)C)[C@H](OC(C)=O)[C@@]2(C)O1.Cl [Colforsin dapropate hydrochloride]	21.7%	1.1 fold	–
Bromocryptine	–	2.3 fold	Percentage of cell with nuclear Arc immunostaining above 2σ threshold: 45.0%
CC(=O)/N=c1/sc(S(N)(=O)=O)nn1C [Methazolamide]	–	–	Percentage of cell with nuclear Arc immunostaining above 2σ threshold [3]: 11.8%
CCC1(C)CC(=O)NC1=O (stereo not shown) [Ethosuximide]	21.8%	1.1 fold	–
OC(CCN1CCCCC1)(c1ccccc1)C1CCCCC1 (stereo not shown) [Benzhexol hydrochloride]	20.4%	1.0 fold	–
CC(NC(C)(C)C)C(=O)c1cccc(Cl)c1 (stereo not shown) [Bupropion]	–	–	Percentage of cell with nuclear Arc immunostaining above 2σ threshold [3]: 9.0%
CNC(=O)N1N=C(c2ccc(N)cc2)c2cc3c(cc2CC1C)OCO3 (stereo not shown) [GYKI-53655]	35.7%	1.8 fold	–
NS(=O)(=O)Cc1noc2ccccc12 [Zonisamide]	–	–	Percentage of cell with nuclear Arc immunostaining above 2σ threshold [3]: 9.8%
NC[C@H](CC(=O)O)c1ccc(Cl)cc1 [(R)-Baclofen]	31.8%	1.6 fold	–
CC(C)CC(N(C)C)C1(c2ccc(Cl)cc2)CCC1 (stereo not shown) [Sibutramine]	–	1.1 fold	Percentage of cell with nuclear Arc immunostaining above 2σ threshold: 21.3%
COc1cc2c(cc1OC)C1CC(=O)C(CC(C)C)CN1CC2 (stereo not shown) [Tetrabenazine]	24.9%	1.3 fold	–
N=C(N)NC(=O)Cc1c(Cl)cccc1Cl [Guanfacine hydrochloride]	20.9%	1.1 fold	–
CCCN(CCC)CCc1cccc2c1CC(=O)N2 [Ropinirole]	14.2%	–	–
CCN(CC)C(=O)C1(c2ccccc2)CC1CN (stereo not shown) [Milnacipran]	13.2%	–	–
CC(C)(N)C(=O)N[C@H](COCc1ccccc1)C(=O)N1CCC2(CC1)CN(S(C)(=O)=O)c1ccccc12 [Ibutamoren]	–	–	Percentage of cell with nuclear Arc immunostaining above 2σ threshold [3]: 7.1%
